Results reported in PMC8154419, “Druggable Hot Spots in the Schistosomiasis Cathepsin B1 Target Identified by Functional and Binding Mode Analysis of Potent Vinyl Sulfone Inhibitors” (ACS Infectious Diseases, 2020).
Several values for one entry are separate records, joined by “and”; a condition that tells them apart may be missing. Identical values can stand only once. Like-named read-outs stand apart in the source and are kept apart here.

What was measured:
SmCB1 [1] = biological target: T1, SmCB1 (Schistosoma mansoni, UniProt Q8MNY2, T185A/T300A); parameters: method as in PMID 21832058; conditions: reference compounds; SmCB1, Cbz–Phe–Arg–AMC, pH 5.5; read-out: Inhibition IC50; cited from earlier work
SmCB1 [2] = experiment: biochemical; assay type: biochemical, Schistosoma mansoni; conditions: k2nd for SmCB1 to k2nd for human cathepsin B
Protocol: (§1) (A) Sensitivity of SmCB1 and its human ortholog cathepsin B (HuCB) to inhibitors. The second order rate constants were measured in a kinetic activity assay with the fluorogenic peptide substrate Cbz–Phe–Arg–AMC at pH 5.5. […] Resulting phenotypes observed at three time points were graded by the severity score ranging from 0 to 4, with 4 being the most severe (see Figure S2A,B).
(§2) Inhibition measurements were performed in triplicates in 96-well microplates (100 μL assay volume) at 37 °C. […] The kinetics of product release was continuously monitored in an Infinite M1000 microplate reader (Tecan) at excitation and emission wavelengths of 360 and 465 nm, respectively. The IC50 values were determined by nonlinear regression using GraFit software. To determine the inhibition constant k2nd, the enzyme (40 pM SmCB1 or 60 pM HuCB) was added to a mixture of the fluorogenic substrate Cbz–Phe–Arg–AMC (20 μM for SmCB1 and 33 μM for HuCB) and an inhibitor (0–1 μM) in the assay buffer under assay conditions as above. The hydrolysis of substrate was monitored for 30 min in a microplate reader as described above. […] The second order rate constant, k2nd, was determined by fitting to the linear equation kobs = (k2nd[I])/(1 + [S]/KM), where [S] is the substrate concentration, [I] is the inhibitor concentration, and KM is the Michaelis–Menten constant.

SmCB1 [3] = biological target: T1, SmCB1; experiment: biochemical; assay type: biochemical; conditions: pH 5.5, read-out: second order rate constant k2nd SmCB1
Protocol: as §1, §2

[4] = In vitro plasma stability; assay type: in vitro ADME; conditions: 5 μM inhibitor, pooled human plasma, 30 min, 37°C
Protocol: Finally, we evaluated the metabolic stability of the inhibitors in human plasma in vitro. The stability was expressed as the percentage of parental compound remaining in plasma after 30 min of incubation.
Figure S2. Antischistosomal activity, cytotoxicity, and plasma stability of selected vinyl sulfone inhibitors. A. Induction of phenotypic alterations by the inhibitors was determined with newly transformed schistosomula (NTS) of S. mansoni. The inhibitors were tested at 1 and 10 µM concentrations for 24, 48 and 72 h, and the resulting phenotypes are shown as descriptor s .2 B. Example of an inhibitor-induced phenotype in NTS of S. mansoni versus untreated controls. Images were captured using a Zeiss Axiovert 40 C inverted microscope (10x objective) and a Zeiss AxioCam MRc digital camera controlled by AxioVision 40 (v. 4.8.1.0) software. Scale bar = 0.2 mm. C. Cytotoxicity of the inhibitors towards four human cell lines expressed as % viability vs. untreated cells. Cells were treated with the indicated concentration of the compounds for 72 h and assayed by means of the XTT test (as described previously3). Standard deviation values were within 10% of the mean of tetraplicates. D. In vitro plasma stability was determined for 5 µM inhibitors incubated with pooled human plasma (Biowest) for 30 min at 37°C. The samples were deproteinized by acetonitrile a nd quantified by LC-MS (Exion LC AD/QTrap 6500+, AB Sciex). Data are expressed as a percentage of the remaining parent compound after 30 min incubation; standard deviations of the means ar e gi ve n for duplicate measurements.
(1 picture or pasted object on this page, not shown here)

SmCB1 [5] = biological target: T1, SmCB1; experiment: SmCB1 kinetic inhibition assay (IC50) with fluorogenic substrate Cbz–Phe–Arg–AMC; assay type: biochemical; conditions: recombinant SmCB1, Cbz–Phe–Arg–AMC, pH 5.5; mean ± SE, triplicate; n.i.: no significant inhibition at 100 μM
Description: Thirty-four peptidomimetic vinyl sulfone analogs (including vinyl sulfonamides and vinyl sulfonate esters) were explored as potential inhibitors of SmCB1 to infer the structural requirements of the inhibitor-binding subsites in the enzyme active site cleft. The compound scaffold is defined by positions P3 through P1′, and the substitutions were selected to provide a high diversity at P2 and P1′ (Table 1). These two positions were recently reported to display large differences in the subsite interaction energy in response to their structural modifications.[10] The compounds were screened in vitro against recombinant SmCB1, and their IC50 values were determined using a kinetic inhibition assay with the fluorogenic substrate Cbz–Phe–Arg–AMC.
Inhibition measurements were performed in triplicates in 96-well microplates (100 μL assay volume) at 37 °C. […] The kinetics of product release was continuously monitored in an Infinite M1000 microplate reader (Tecan) at excitation and emission wavelengths of 360 and 465 nm, respectively. The IC50 values were determined by nonlinear regression using GraFit software. To determine the inhibition constant k2nd, the enzyme (40 pM SmCB1 or 60 pM HuCB) was added to a mixture of the fluorogenic substrate Cbz–Phe–Arg–AMC (20 μM for SmCB1 and 33 μM for HuCB) and an inhibitor (0–1 μM) in the assay buffer under assay conditions as above. The hydrolysis of substrate was monitored for 30 min in a microplate reader as described above. An observed rate constant, kobs, was calculated at each inhibitor concentration by fitting the progress curve to the equation P = vi/kobs(1 – e^–kobst), where P is the product formation, vi is the initial velocity, and t is the reaction time. For both enzymes, kobs varied linearly with the inhibitor concentration showing that the dependence of kobs on the inhibitor concentration is nonsaturating. […] The second order rate constant, k2nd, was determined by fitting to the linear equation kobs = (k2nd[I])/(1 + [S]/KM), where [S] is the substrate concentration, [I] is the inhibitor concentration, and KM is the Michaelis–Menten constant. KM values determined for SmCB1 and HuCB were 25 and 38 μM, respectively.

human cathepsin B (HuCB) = biological target: T2, human cathepsin B (HuCB) (Homo sapiens, UniProt P07858); experiment: Second order rate constant (k2nd) of inhibition, human cathepsin B; assay type: biochemical; conditions: for second order rate constant k2nd HuCB: Cbz–Phe–Arg–AMC, pH 5.5, mean of triplicate; for kinact/KI: pH 5.5, read-out: second order rate constant k2nd HuCB
T2 construct: purchased Calbiochem
Protocol: as §1, §2

[6] = system: S. mansoni newly transformed schistosomula (NTS); experiment: Parasite assay and phenotype scoring of newly transformed schistosomula; assay type: cell-based, Schistosoma mansoni; conditions: score 0 to 4, 4 most severe
Protocol: The NTS were exposed to 1 and 10 μM inhibitors, and the resulting phenotypes were graded 0 through 4 from the least to the most severe (Figure 4B).[25],[26] […] The investigated inhibitors were also tested for their cytotoxicity against four human cell lines over 72 h.
Newly transformed schistosomula (NTS) of S. mansoni were prepared by mechanically transforming infective larvae (cercariae) as described previously.[67] NTS (200–300 parasites) were incubated in 200 μL of Basch Medium 169[68] containing 5% heat-inactivated fetal bovine serum, 100 U/mL penicillin, and 100 μg/mL streptomycin at 5% CO2 and 37 °C.[67],[69] […] We use single word or phrase “descriptors”[35] to record changes in movement, shape, and translucence (Figure S2).
Figure S2. Antischistosomal activity, cytotoxicity, and plasma stability of selected vinyl sulfone inhibitors. A. Induction of phenotypic alterations by the inhibitors was determined with newly transformed schistosomula (NTS) of S. mansoni. The inhibitors were tested at 1 and 10 µM concentrations for 24, 48 and 72 h, and the resulting phenotypes are shown as descriptor s .2 B. Example […]
captured using a Zeiss Axiovert 40 C inverted microscope (10x objective) and a Zeiss AxioCam MRc digital camera controlled by AxioVision 40 (v. 4.8.1.0) software. Scale bar = 0.2 mm. C. […]

T1 sequence (Q8MNY2 87-340 T185A/T300A): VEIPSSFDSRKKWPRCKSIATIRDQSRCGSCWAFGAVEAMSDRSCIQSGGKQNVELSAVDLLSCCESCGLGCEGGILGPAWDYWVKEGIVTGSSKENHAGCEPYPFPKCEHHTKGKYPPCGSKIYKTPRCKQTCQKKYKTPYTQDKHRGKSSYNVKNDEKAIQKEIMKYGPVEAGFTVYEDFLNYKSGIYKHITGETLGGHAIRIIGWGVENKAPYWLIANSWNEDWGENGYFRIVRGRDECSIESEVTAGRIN

Q: With `CC(C)C[C@H](NC(=O)N1CCOCC1)C(=O)N[C@H](/C=C/S(=O)(=O)c1ccccc1)CCc1ccccc1` [K11017, morpholino urea-leucyl-homophenylalanyl-vinylsulfone-phenyl] as the molecule, how does the IC50 (SmCB1 [1]) read?
A: The IC50 was 1710 ± 130 pM.

Q: Which results are given for `CCOC(=O)C1CCN(C(=O)N[C@@H](Cc2ccc(O)cc2)C(=O)N[C@H](/C=C/S(=O)(=O)c2ccccn2)CCc2ccccc2)CC1` [WRR-391]?
A: selectivity ratio (SmCB1 [2]): ~1.4; kinact/KI (SmCB1 [3]): 208000 M⁻¹ s⁻¹; percentage of remaining parent compound in plasma [4]: 54%; IC50 (SmCB1 [5]): ~200 pM and 240 pM; second order rate constant k2nd HuCB (human cathepsin B (HuCB)): 152 806 M^–1 s^–1; kinact/KI (human cathepsin B (HuCB)): 153000 M⁻¹ s⁻¹; severity score ([6]; 1 μM, 24 hours): 0; severity score ([6]; 1 μM, 48 hours): 0; severity score ([6]; 1 μM, 72 hours): 0; severity score ([6]; 10 μM, 24 hours): 0; severity score ([6]; 10 μM, 48 hours): 0; severity score ([6]; 10 μM, 72 hours): 4

Q: Which selectivity ratio (SmCB1 [2]) does the source give for `CN1CCN(C(=O)N[C@@H](Cc2ccccc2)C(=O)N[C@H](/C=C/S(=O)(=O)NOCc2ccccc2)CCc2ccccc2)CC1` [WRR-286] here?
A: The selectivity ratio was “about 6.0”.

Q: And the kinact/KI (SmCB1 [3])?
A: The kinact/KI was 200000 M⁻¹ s⁻¹.

Q: What about the “percentage of remaining parent compound in plasma” value [4] of the same molecule?
A: Its value is 107%.

Q: What about the IC50 (SmCB1 [5]) of the same molecule?
A: Its IC50 is ~600 pM and 610 pM.

Q: What about the “second order rate constant k2nd HuCB” value (human cathepsin B (HuCB)) of the same molecule?
A: Its value is 33 618 M^–1 s^–1.

Q: And the kinact/KI (human cathepsin B (HuCB))?
A: The kinact/KI was 33600 M⁻¹ s⁻¹.

Q: And the severity score ([6]; 1 μM, 24 hours)?
A: Its severity score is 0.

Q: What about the severity score ([6]; 1 μM, 48 hours) of the same molecule?
A: The severity score was 0.

Q: And the severity score ([6]; 1 μM, 72 hours)?
A: Its severity score is 4.

Q: And the severity score ([6]; 10 μM, 24 hours)?
A: Its severity score is 0.

Q: And the severity score ([6]; 10 μM, 48 hours)?
A: The severity score was 4.

Q: What about the severity score ([6]; 10 μM, 72 hours) of the same molecule?
A: The severity score was 4.

Q: For `CN1CCN(C(=O)N[C@@H](Cc2ccccc2)C(=O)N[C@H](/C=C/S(=O)(=O)c2ccccc2)CCc2ccccc2)CC1` [K11777, N-methylpiperazine-phenylalanyl-homophenylalanyl-vinylsulfone-phenyl, reference compound], which “percentage of remaining parent compound in plasma” value [4] is on record?
A: The value was 88%.

Q: What about the severity score ([6]; 1 μM, 24 hours) of the same molecule?
A: Its severity score is 0.

Q: And the severity score ([6]; 1 μM, 48 hours)?
A: The severity score was 0.

Q: What about the severity score ([6]; 1 μM, 72 hours) of the same molecule?
A: Its severity score is 3.

Q: What about the severity score ([6]; 10 μM, 24 hours) of the same molecule?
A: Its severity score is 0.

Q: What about the severity score ([6]; 10 μM, 48 hours) of the same molecule?
A: The severity score was 1.

Q: And the severity score ([6]; 10 μM, 72 hours)?
A: Its severity score is 3.

Q: And the IC50 (SmCB1 [1])?
A: Its IC50 is 2090 ± 80 pM.
